Measurements taken from patent US12564638B2 (SHANGHAITECH UNIVERSITY, priority 2019, dated 2026).
Where two headings read alike, the source gives them in different places.

Experiments:
Type in all cases: cell-based
[1] = system: H1975 (EGFR T790M+L858R mutation, non-small cell lung cancer cell line); assay: Cell viability assay (WST/CCK8), H1975 cells; details: Homo sapiens, NCI-H1975, read-out: IC50 (half inhibitory concentration)
Text: (§1) The cell lines with abnormal EGFR expression used are as follows: • HCC827 cells (EGFR Exon19 del, non-small cell lung cancer cells); • PC9 cells (EGFR Exon 19 del, non-small cell lung cancer cells); • PC9BracA1 (EGFR Exon 19 del+T790M, non-small cell lung cancer cells) • H1975 (EGFR Exon T790M+L858R mutation, non-small cell lung cancer cell line) • BT474 cells (HER2 positive breast cancer cells)
(§2) All of the half inhibitory concentrations (IC50) of these compounds of the present invention were determined with WST reagent from Fuyuan Biotec Company. The specific experiment procedures are as follows: Cancer cells were planted in 96-well-plate at the density of 3 000 cells per well with 100 μL RPMI1640 completed culture medium. In the next day, compounds with indicated concentrations were added to the cells, DMSO was used as the negative control and the EGFR TKIs were used to treat cells as the positive groups. After 72 hours drug treatment, cell viability was measured by using the WST reagent following the instructions.

[2] = system: PC9BracA1 (EGFR Exon 19 del+T790M, non-small cell lung cancer cells); assay: Cell viability assay (WST/CCK8), PC9Brac1 cells; details: read-out: IC50 (half inhibitory concentration)
Text: as §1, §2

[3] = system: HCC827 cells (EGFR Exon19 del, non-small cell lung cancer cells); assay: Cell viability assay (WST/CCK8), HCC827 cells; details: Homo sapiens, HCC827, 72 h, 72 hours, read-out: IC50 (half inhibitory concentration)
Procedure, shortened: (§3)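 Cells seeded at 3 000/well in RPMI1640 complete medium, dosed next day with compounds (top 10 μM, 3-fold, 10 points) for 72 h. Viability read with WST (CCK8) reagent; DMSO as negative control, EGFR TKIs as positive controls; IC50 determined.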

[4] = system: PC9 cells (EGFR Exon 19 del, non-small cell lung cancer cells); assay: Cell viability assay (WST/CCK8), PC9 cells; details: Homo sapiens, PC-9, 72 hours, read-out: IC50 (half inhibitory concentration)
Procedure, shortened: as §3

[5] = system: BT474 cells (HER2 positive breast cancer cells); assay: Cell viability assay (CCK8), BT474 cells; details: Homo sapiens, BT-474, Table 10, BT474, 72 hours, read-out: IC50 (half inhibitory concentration)
Text: as §1
as §2, with “instructions. The growth inhibition curve of the compounds on cells were plotted by Prism GraphPad, and the compounds IC50 calculated from it.” for “instructions.”
The cell viability assays were taken to determine the anti-tumor activity of these indicated compounds in BT474 cells, which can overexpress HER2 protein. The cells were treated with the gradient concentration of these compounds (the maximum concentration: 10 μM; 3-fold dilution ratio, 10 concentration gradients) for 72 hours and then incubated with the CCK8 reagent to determine the cell viability.

[6] = Table 8, osimertinib-based compounds, H1975, 72 hours, WST
[7] = Table 8, osimertinib-based compounds, Pc9Brc1, 72 hours, WST
[8] = Table 8, osimertinib-based compounds, HCC827, WST
[9] = Table 8, osimertinib-based compounds, PC9, WST
[10] = PC9Brac1 (Ex19del + T790M), 72 hours, WST
[11] = HCC827 (Exon19 Del), WST (CCK8)

## C=CC(=O)Nc1cc(Nc2nccc(-c3cn(C)c4ccccc34)n2)c(OC)cc1N(C)CCN(C)CCCCCCCCCSc1cccc2c1CN(C1CCC(=O)NC1=O)C2=O (centres unmarked) [SIAIS337085, N-(2-((2-((9-((2-(2,6-dioxopiperidin-3-yl)-1-oxoisoindolin-4-yl)thio)nonyl)(methyl)amino)ethyl)(methyl)amino)-4-methoxy-5-((4-(1-methyl-1H-indol-3-yl)pyrimidin-2-yl)amino)phenyl)acrylamide]
[1]; [6]
  IC50: 462 nM
[2]; [7]
  IC50: 239 nM
[3]; [8]
  IC50: 6 nM
[4]; [9]
  IC50: 143 nM

## COc1cc2ncnc(Nc3ccc(F)c(Cl)c3)c2cc1NC(=O)/C=C/CN1CCC(NC(=O)CCCCCNc2cccc3c2C(=O)N(C2CCC(=O)NC2=O)C3=O)CC1 (centres unmarked) [SIAIS249084, (E)-N-(1-(4-((4-((3-chloro-4-fluorophenyl)amino)-7-methoxyquinazolin-6-yl)amino)-4-oxobut-2-en-1-yl)piperidin-4-yl)-6-((2-(2,6-dioxopiperidin-3-yl)-1,3-dioxoisoindolin-4-yl)amino)hexanamide]
[2]; [10]
  IC50: 434 nM
[5]
  IC50: 6.08 nM
[3]; [11]
  IC50: 3 nM
[4]; PC9 (Exon19 Del), WST (CCK8)
  IC50: 0.6 nM

## C=CC(=O)Nc1cc(Nc2nccc(-c3cn(C)c4ccccc34)n2)c(OC)cc1N(C)CCN(C)C(=O)COCCSc1cccc2c1CN(C1CCC(=O)NC1=O)C2=O (centres unmarked) [SIAIS337074, N-(2-((2-(2-(2-((2-(2,6-dioxopiperidin-3-yl)-1-oxoisoindolin-4-yl)thio)ethoxy)-N-methylacetamido)ethyl)(methyl)amino)-4-methoxy-5-((4-(1-methyl-1H-indol-3-yl)pyrimidin-2-yl)amino)phenyl)acrylamide]
[1]; [6]
  IC50: 145 nM
[2]; [7]
  IC50: 238 nM
[3]; [8]
  IC50: 3 nM
[4]; [9]
  IC50: 91 nM

## C=CC(=O)Nc1cc(Nc2nccc(-c3cn(C)c4ccccc34)n2)c(OC)cc1N(C)CCN(C)CCCCCSc1cccc2c1CN(C1CCC(=O)NC1=O)C2=O (centres unmarked) [SIAIS337081, N-(2-((2-((5-((2-(2,6-dioxopiperidin-3-yl)-1-oxoisoindolin-4-yl)thio)pentyl)(methyl)amino)ethyl)(methyl)amino)-4-methoxy-5-((4-(1-methyl-1H-indol-3-yl)pyrimidin-2-yl)amino)phenyl)acrylamide]
[1]; [6]
  IC50: 18 nM
[2]; [7]
  IC50: 207 nM
[3]; [8]
  IC50: 184 nM
[4]; [9]
  IC50: 134 nM

## C=CC(=O)Nc1cc(Nc2nccc(-c3cn(C)c4ccccc34)n2)c(OC)cc1N(C)CCN(C)Cc1ccc(CSc2cccc3c2CN(C2CCC(=O)NC2=O)C3=O)cc1 (centres unmarked) [SIAIS337088, N-(2-((2-((4-(((2-(2,6-dioxopiperidin-3-yl)-1-oxoisoindolin-4-yl)thio)methyl)benzyl)(methyl)amino)ethyl)(methyl)amino)-4-methoxy-5-((4-(1-methyl-1H-indol-3-yl)pyrimidin-2-yl)amino)phenyl)acrylamide]
[1]; [6]
  IC50: 239 nM
[2]; [7]
  IC50: 662 nM
[3]; [8]
  IC50: 5 nM
[4]; [9]
  IC50: 302 nM

## C=CC(=O)Nc1cc2c(Nc3ccc(F)c(Cl)c3)ncnc2cc1OCCCN1CCN(C(=O)CCOCCOCCNc2cccc3c2C(=O)N(C2CCC(=O)NC2=O)C3=O)CC1 (centres unmarked) [SIAIS262127, N-(4-((3-chloro-4-fluorophenyl)amino)-7-(3-(4-(3-(2-(2-((2-(2,6-dioxopiperidin-3-yl)-1,3-dioxoisoindolin-4-yl)amino)ethoxy)ethoxy)propanoyl)piperazin-1-yl)propoxy)quinazolin-6-yl)acrylamide]
[1]; Table 7, canertinib-based compounds, H1975 (L858R + T790M)
  IC50: 468 nM
[2]; Table 7, canertinib-based compounds, PC9Brca1 (Ex19del + T790M)
  IC50: 423 nM
[3]; Table 6, canertinib-based compounds, HCC827 (Exon19 Del), WST
  IC50: 6.4 nM
[4]; Table 6, canertinib-based compounds, PC9 (Exon19 Del), WST
  IC50: 9.7 nM

## C=CC(=O)Nc1cc(Nc2nccc(-c3cn(C)c4ccccc34)n2)c(OC)cc1N(C)CCNC [SIAIS337051, N-(4-methoxy-2-(methyl(2-(methylamino)ethyl)amino)-5-((4-(1-methyl-1H-indol-3-yl)pyrimidin-2-yl)amino)phenyl)acrylamide]
[1]; [6]
  IC50: 1 nM
[2]; [7]
  IC50: 479 nM
[3]; [8]
  IC50: 1 nM
[4]; [9]
  IC50: 2 nM

## COc1cc2ncnc(Nc3ccc(F)c(Cl)c3)c2cc1NC(=O)/C=C/CN1CCC(N2CCNCC2)CC1 [SIAIS262021, (E)-N-(4-((3-chloro-4-fluorophenyl)amino)-7-methoxyquinazolin-6-yl)-4-(4-(piperazin-1-yl)piperidin-1-yl)but-2-enamide]
[2]; [10]
  IC50: 954 nM
[5]
  IC50: 32.6 nM

## C=CC(=O)Nc1cc(Nc2nccc(-c3cn(C)c4ccccc34)n2)c(OC)cc1N(C)CCN(C)CCCC#Cc1cccc2c1CN(C1CCC(=O)NC1=O)C2=O (centres unmarked) [SIAIS337089, N-(2-((2-((5-(2-(2,6-dioxopiperidin-3-yl)-1-oxoisoindolin-4-yl)pent-4-yn-1-yl)(methyl)amino)ethyl)(methyl)amino)-4-methoxy-5-((4-(1-methyl-1H-indol-3-yl)pyrimidin-2-yl)amino)phenyl)acrylamide]
[1]; [6]
  IC50: 16 nM
[2]; [7]
  IC50: 107 nM
[3]; [8]
  IC50: 15 nM
[4]; [9]
  IC50: 82 nM

## C=CC(=O)Nc1cc(Nc2nccc(-c3cn(C)c4ccccc34)n2)c(OC)cc1N(C)CCN(C)CCCCCCCCSc1cccc2c1CN(C1CCC(=O)NC1=O)C2=O (centres unmarked) [SIAIS337084, N-(2-((2-((8-((2-(2,6-dioxopiperidin-3-yl)-1-oxoisoindolin-4-yl)thio)octyl)(methyl)amino)ethyl)(methyl)amino)-4-methoxy-5-((4-(1-methyl-1H-indol-3-yl)pyrimidin-2-yl)amino)phenyl)acrylamide]
[2]; [7]
  IC50: 686 nM
[3]; [8]
  IC50: 353 nM
[4]; [9]
  IC50: 271 nM

## C=CC(=O)Nc1cc(Nc2nccc(-c3cn(C)c4ccccc34)n2)c(OC)cc1N(C)CCN(C)CCCCCCCC#Cc1cccc2c1CN(C1CCC(=O)NC1=O)C2=O (centres unmarked)
[1]; [6]
  IC50: 117 nM
[2]; [7]
  IC50: 413 nM
[3]; [8]
  IC50: 9 nM
[4]; [9]
  IC50: 161 nM

## C=CC(=O)Nc1cc(Nc2nccc(-c3cn(C)c4ccccc34)n2)c(OC)cc1N(C)CCN(C)C(=O)COCCOCCOCCSc1cccc2c1CN(C1CCC(=O)NC1=O)C2=O (centres unmarked) [SIAIS337076, N-(2-((14-((2-(2,6-dioxopiperidin-3-yl)-1-oxoisoindolin-4-yl)thio)-3-methyl-4-oxo-6,9,12-trioxa-3-azatetradecyl)(methyl)amino)-4-methoxy-5-((4-(1-methyl-1H-indol-3-yl)pyrimidin-2-yl)amino)phenyl)acrylamide]
[1]; [6]
  IC50: 187 nM
[2]; [7]
  IC50: 303 nM
[3]; [8]
  IC50: 10 nM
[4]; [9]
  IC50: 459 nM

## C=CC(=O)Nc1cc(Nc2nccc(-c3cn(C)c4ccccc34)n2)c(OC)cc1N(C)CCN(C)CCCSc1cccc2c1CN(C1CCC(=O)NC1=O)C2=O (centres unmarked) [SIAIS337079, N-(2-((2-((3-((2-(2,6-dioxopiperidin-3-yl)-1-oxoisoindolin-4-yl)thio)propyl)(methyl)amino)ethyl)(methyl)amino)-4-methoxy-5-((4-(1-methyl-1H-indol-3-yl)pyrimidin-2-yl)amino)phenyl)acrylamide]
[1]; [6]
  IC50: 70 nM
[2]; [7]
  IC50: 366 nM
[3]; [8]
  IC50: 879 nM
[4]; [9]
  IC50: 373 nM

## COc1cc2ncnc(Nc3ccc(F)c(Cl)c3)c2cc1NC(=O)/C=C/CN1CCC(NC(=O)CCCNc2cccc3c2C(=O)N(C2CCC(=O)NC2=O)C3=O)CC1 (centres unmarked) [SIAIS249083, (E)-N-(4-((3-chloro-4-fluorophenyl)amino)-7-methoxyquinazolin-6-yl)-4-(4-(4-((2-(2,6-dioxopiperidin-3-yl)-1,3-dioxoisoindolin-4-yl)amino)butanamido)piperidin-1-yl)but-2-enamide]
[2]; [10]
  IC50: 435 nM
[5]
  IC50: 64.9 nM
[3]; [11]
  IC50: 5 nM
[4]; PC9 (Exon19 Del), WST (CCK8)
  IC50: 2.9 nM
